*: point of attachment. FITC = O=C1OC2(c3ccc(O)cc3Oc3cc(O)ccc32)c2ccc(NC(=S)*)cc21; Ahx = NCCCCCC(=O)O
test system: collagen-agarose beads; experiment: Collagen agarose binding assay; conditions: loaded in PBS pH 7.4, stringent washing, 10 column volumes of 1M NaCl in PBST, FIG. 3
Source text: FIG. 3 is a schematic and a photograph of a collagen agarose binding assay. Apt #1 is an aptamer consisting of SEQ ID NO: 1; Apt #7 is an aptamer consisting of SEQ ID NO: 7; Apt #19 is an aptamer consisting of SEQ ID NO: 19; and Apt #20 is an aptamer consisting of SEQ ID NO: 20. CBD=collagen-binding domain; CBD1=bovine vWF sequence comprising SEQ ID NO: 22; CBD2=human vWF sequence comprising SEQ ID NO: 23. […] Aptamers and reporters were mixed and loaded under mild binding conditions (PBS, pH 7.4), followed by washing with increasing concentrations of salt and/or detergent (PBST, using Tween 20). Stringent washing generally includes 10 column volumes of 1M NaCl in PBST, pH 7.4).

binding to collagen-agarose beads | Substance
bind tightly | acetyl-VNTANSTGGSGARRGVRVAWREPGRMELNMPHGGSGK(FITC)-amide (Ac-VNTANSTGGSGARRGVRVAWREPGRMELNMPHGGSGK(FITC)-NH2; SMILES CSCC[C@H](NC(=O)[C@H](CCCNC(=N)N)NC(=O)CNC(=O)[C@@H]1CCCN1C(=O)[C@H](CCC(=O)O)NC(=O)[C@H](CCCNC(=N)N)NC(=O)[C@H](Cc1c[nH]c2ccccc12)NC(=O)[C@H](C)NC(=O)[C@@H](NC(=O)[C@H](CCCNC(=N)N)NC(=O)[C@@H](NC(=O)CNC(=O)[C@H](CCCNC(=N)N)NC(=O)[C@H](CCCNC(=N)N)NC(=O)[C@H](C)NC(=O)CNC(=O)[C@H](CO)NC(=O)CNC(=O)CNC(=O)[C@@H](NC(=O)[C@H](CO)NC(=O)[C@H](CC(N)=O)NC(=O)[C@H](C)NC(=O)[C@@H](NC(=O)[C@H](CC(N)=O)NC(=O)[C@@H](NC(C)=O)C(C)C)[C@@H](C)O)[C@@H](C)O)C(C)C)C(C)C)C(=O)N[C@@H](CCC(=O)O)C(=O)N[C@@H](CC(C)C)C(=O)N[C@@H](CC(N)=O)C(=O)N[C@@H](CCSC)C(=O)N1CCC[C@H]1C(=O)N[C@@H](Cc1c[nH]cn1)C(=O)NCC(=O)NCC(=O)N[C@@H](CO)C(=O)NCC(=O)N[C@@H](CCCCNC(=S)Nc1ccc2c(c1)C(=O)OC21c2ccc(O)cc2Oc2cc(O)ccc21)C(N)=O) [Aptamer #7]
bind tightly | acetyl-RRGVRVAWREPGRMELNMPHGGSGK(FITC)-amide (Ac-RRGVRVAWREPGRMELNMPHGGSGK(FITC)-NH2; SMILES CSCC[C@H](NC(=O)[C@H](CCCNC(=N)N)NC(=O)CNC(=O)[C@@H]1CCCN1C(=O)[C@H](CCC(=O)O)NC(=O)[C@H](CCCNC(=N)N)NC(=O)[C@H](Cc1c[nH]c2ccccc12)NC(=O)[C@H](C)NC(=O)[C@@H](NC(=O)[C@H](CCCNC(=N)N)NC(=O)[C@@H](NC(=O)CNC(=O)[C@H](CCCNC(=N)N)NC(=O)[C@H](CCCNC(=N)N)NC(C)=O)C(C)C)C(C)C)C(=O)N[C@@H](CCC(=O)O)C(=O)N[C@@H](CC(C)C)C(=O)N[C@@H](CC(N)=O)C(=O)N[C@@H](CCSC)C(=O)N1CCC[C@H]1C(=O)N[C@@H](Cc1c[nH]cn1)C(=O)NCC(=O)NCC(=O)N[C@@H](CO)C(=O)NCC(=O)N[C@@H](CCCCNC(=S)Nc1ccc2c(c1)C(=O)OC21c2ccc(O)cc2Oc2cc(O)ccc21)C(N)=O) [Aptamer #20]

Substance | binding to collagen-agarose beads
acetyl-STRSVSSSSYRRMFGGPGTASK(FITC)-amide (Ac-STRSVSSSSYRRMFGGPGTASK(FITC)-NH2; SMILES CSCC[C@H](NC(=O)[C@H](CCCNC(=N)N)NC(=O)[C@H](CCCNC(=N)N)NC(=O)[C@H](Cc1ccc(O)cc1)NC(=O)[C@H](CO)NC(=O)[C@H](CO)NC(=O)[C@H](CO)NC(=O)[C@H](CO)NC(=O)[C@@H](NC(=O)[C@H](CO)NC(=O)[C@H](CCCNC(=N)N)NC(=O)[C@@H](NC(=O)[C@H](CO)NC(C)=O)[C@@H](C)O)C(C)C)C(=O)N[C@@H](Cc1ccccc1)C(=O)NCC(=O)NCC(=O)N1CCC[C@H]1C(=O)NCC(=O)N[C@H](C(=O)N[C@@H](C)C(=O)N[C@@H](CO)C(=O)N[C@@H](CCCCNC(=S)Nc1ccc2c(c1)C(=O)OC21c2ccc(O)cc2Oc2cc(O)ccc21)C(N)=O)[C@@H](C)O) [Aptamer #9] | bind tightly

molecular target: purified recombinant His-tagged VIM (Homo sapiens, UniProt P08670); experiment: IMAC pull-down / comparative evaluation of vimentin-binding aptamers (net fluorescent signal with and without r-vimentin); conditions: His-Tag beads, FIG. 5
Source text: FIG. 4 is a schematic and photograph of a IMAC Pull-down assay. The numbers 1, 2, 4, 7, 9, 11, 14, 16, 17, and 18 under the tubes correspond to aptamers consisting of SEQ ID NOs: 1, 2, 4, 7, 9, 11, 14, 16, 17, and 18, respectively. IMAC=[…]/Ni- or Metal-chelate chromatography.
FIG. 5 is a graph showing a comparative evaluation of vimentin-binding aptamers. The numbers 1, 2, 4, 7, 9, 11, 14, 16, 17, 18, 22, and 23 under the graph correspond to aptamers consisting of SEQ ID NOs: 1, 2, 4, 7, 9, 11, 14, 16, 17, 18, 49, and 51, respectively.
Aptamers containing VIM binding domains were allowed to associate with purified recombinant His-tagged VIM, followed by the addition of His-Tag beads, which were then used to concentrate the His-VIM and associated aptamers (see FIG. 4). Numbers below the tubes in FIG. 4 reading from left to right, top to bottom, correspond to aptamers that include SEQ ID NOs: 1, 2, 4, 7, 9, 11, 14, 16, 17, and 18, respectively.
The comparative binding efficiency of the aptamers was evaluated by quantifying the net fluorescent signal in the presence and absence of vimentin (e.g., r-vimentin)(see FIG. 5). Numbers 1, 2, 4, 7, 9, 11, 14, 16, 17, 18, 22, and 23 below the graph correspond to aptamers that include SEQ ID NOs: 1, […], 4, 7, […], 11, 14, 16, 17, 18, 49, and 51, respectively. VIM-binding sequences from Phage Display studies were positive.

Chain of purified recombinant His-tagged VIM (P08670 whole entry): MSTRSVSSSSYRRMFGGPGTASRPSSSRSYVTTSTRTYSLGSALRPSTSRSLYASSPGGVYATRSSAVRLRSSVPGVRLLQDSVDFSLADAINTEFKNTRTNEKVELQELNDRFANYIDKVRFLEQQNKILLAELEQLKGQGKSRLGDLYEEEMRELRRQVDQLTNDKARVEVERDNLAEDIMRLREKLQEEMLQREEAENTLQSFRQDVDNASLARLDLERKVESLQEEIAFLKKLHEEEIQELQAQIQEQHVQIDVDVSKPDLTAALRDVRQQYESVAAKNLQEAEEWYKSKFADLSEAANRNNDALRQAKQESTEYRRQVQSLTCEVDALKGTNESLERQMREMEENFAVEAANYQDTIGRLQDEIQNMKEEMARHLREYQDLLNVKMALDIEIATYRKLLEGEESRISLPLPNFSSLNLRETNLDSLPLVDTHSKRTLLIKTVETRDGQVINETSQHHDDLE

Substance | comparative binding efficiency (net fluorescent signal in the presence and absence of vimentin)
(FITC-Ahx)AGKKPSVTVTNVFLYNRPLNSTE-free acid ({FITC-Ahx}-AGKKPSVTVTNVFLYNRPLNSTE-OH; SMILES CC(C)C[C@H](NC(=O)[C@H](Cc1ccccc1)NC(=O)[C@@H](NC(=O)[C@H](CC(N)=O)NC(=O)[C@@H](NC(=O)[C@@H](NC(=O)[C@@H](NC(=O)[C@@H](NC(=O)[C@H](CO)NC(=O)[C@@H]1CCCN1C(=O)[C@H](CCCCN)NC(=O)[C@H](CCCCN)NC(=O)CNC(=O)[C@H](C)NC(=O)CCCCCNC(=S)Nc1ccc2c(c1)C(=O)OC21c2ccc(O)cc2Oc2cc(O)ccc21)C(C)C)[C@@H](C)O)C(C)C)[C@@H](C)O)C(C)C)C(=O)N[C@@H](Cc1ccc(O)cc1)C(=O)N[C@@H](CC(N)=O)C(=O)N[C@@H](CCCNC(=N)N)C(=O)N1CCC[C@H]1C(=O)N[C@@H](CC(C)C)C(=O)N[C@@H](CC(N)=O)C(=O)N[C@@H](CO)C(=O)N[C@H](C(=O)N[C@@H](CCC(=O)O)C(=O)O)[C@@H](C)O) [Aptamer #23] | Strong binding
acetyl-TRKRIRIQRGPGRAFVTIGGK(FITC)-amide (Ac-TRKRIRIQRGPGRAFVTIGGK(FITC)-NH2; SMILES CC[C@H](C)[C@H](NC(=O)[C@H](CCCNC(=N)N)NC(=O)[C@@H](NC(=O)[C@H](CCCNC(=N)N)NC(=O)[C@H](CCCCN)NC(=O)[C@H](CCCNC(=N)N)NC(=O)[C@@H](NC(C)=O)[C@@H](C)O)[C@@H](C)CC)C(=O)N[C@@H](CCC(N)=O)C(=O)N[C@@H](CCCNC(=N)N)C(=O)NCC(=O)N1CCC[C@H]1C(=O)NCC(=O)N[C@@H](CCCNC(=N)N)C(=O)N[C@@H](C)C(=O)N[C@@H](Cc1ccccc1)C(=O)N[C@H](C(=O)N[C@H](C(=O)N[C@H](C(=O)NCC(=O)NCC(=O)N[C@@H](CCCCNC(=S)Nc1ccc2c(c1)C(=O)OC21c2ccc(O)cc2Oc2cc(O)ccc21)C(N)=O)[C@@H](C)CC)[C@@H](C)O)C(C)C) [Aptamer #17] | Strong binding
(FITC-Ahx)AGKKPRVTVTNVFLYNRPLNSTE-free acid ({FITC-Ahx}-AGKKPRVTVTNVFLYNRPLNSTE-OH; SMILES CC(C)C[C@H](NC(=O)[C@H](Cc1ccccc1)NC(=O)[C@@H](NC(=O)[C@H](CC(N)=O)NC(=O)[C@@H](NC(=O)[C@@H](NC(=O)[C@@H](NC(=O)[C@@H](NC(=O)[C@H](CCCNC(=N)N)NC(=O)[C@@H]1CCCN1C(=O)[C@H](CCCCN)NC(=O)[C@H](CCCCN)NC(=O)CNC(=O)[C@H](C)NC(=O)CCCCCNC(=S)Nc1ccc2c(c1)C(=O)OC21c2ccc(O)cc2Oc2cc(O)ccc21)C(C)C)[C@@H](C)O)C(C)C)[C@@H](C)O)C(C)C)C(=O)N[C@@H](Cc1ccc(O)cc1)C(=O)N[C@@H](CC(N)=O)C(=O)N[C@@H](CCCNC(=N)N)C(=O)N1CCC[C@H]1C(=O)N[C@@H](CC(C)C)C(=O)N[C@@H](CC(N)=O)C(=O)N[C@@H](CO)C(=O)N[C@H](C(=O)N[C@@H](CCC(=O)O)C(=O)O)[C@@H](C)O) [Aptamer #22] | Strong binding

Source: US10981980B2, “Polypeptide targeting aptamers for characterization, capture, and clinical management of circulating tumor cells” (Counterpoint Biomedica LLC, priority 2016, dated 2021)
